Experimental data: US11180504B2 (ORCHID PHARMA LTD., priority 2016, dated 2021)
≈ marks a conversion by molar mass, not a printed value. Like-named read-outs stand apart in the source and are kept apart here.

Legend:
[1] = test system: methicillin-sensitive Staphylococcus aureus; experiment: MIC by broth micro-dilution (CLSI), methicillin-sensitive S. aureus; assay type: cell-based; conditions: MSSA S. aureus ATCC29213
[2] = test system: carbapenem sensitive Escherichia coli; experiment: MIC by broth micro-dilution (CLSI), carbapenem sensitive E. coli; assay type: cell-based
[3] = test system: carbapenemase producing K. pneumoniae; experiment: MIC by broth micro-dilution (CLSI), carbapenemase producing K. pneumoniae; assay type: cell-based, Klebsiella pneumoniae
[4] = test system: carbapenem sensitive Pseudomonas aeruginosa; experiment: MIC by broth micro-dilution (CLSI), carbapenem sensitive P. aeruginosa; assay type: cell-based
[5] = Staphylococcus aureus, ATCC 29213 / MSSA, read-out: MIC
[6] = Escherichia coli, ATCC25922, ESBL −ve E. coli ATCC25922, read-out: MIC
[7] = Klebsiella pneumoniae, ATCCBAA1705, KPC-2 K. pneumoniae ATCC BAA-1705, read-out: MIC
[8] = Pseudomonas aeruginosa, ATCC27853, Meropenem susceptible P. aeruginosa ATCC27853, read-out: MIC
[9] = KPC-2 K. pneumoniae ATCC BAA-1705
[10] = Meropenem susceptible P. aeruginosa ATCC27853

With C[C@@H](NC(=O)Cn1cnnn1)[C@H]1C(=O)N2C(C(=O)O)=C(S[C@@H]3CN[C@H](C(=O)N4CC(N5CCNCC5)C4)C3)[C@H](C)[C@H]12 [Example 429, (4R,5S,6R)-6-((R)-1-(2-(1H-tetrazol-1-yl)acetamido)ethyl)-4-methyl-7-oxo-3-((3S,5S)-5-(3-(piperazin-1-yl)azetidine-1-carbonyl)pyrrolidin-3-ylthio)-1-azabicyclo[3.2.0]hept-2-ene-carboxylic acid] the MIC [1, 5] was 4 µg/mL (≈ 6.79 µM), the MIC [2, 6] was 0.25 µg/mL (≈ 0.425 µM) and the MIC [3, 7] was 2 µg/mL (≈ 3.4 µM). It also gave an MIC [4, 8] of 2 µg/mL (≈ 3.4 µM).

For C[C@@H](NC(=O)Cn1cnnn1)[C@H]1C(=O)N2C(C(=O)O)=C(S[C@@H]3CN[C@H](C(=O)N4CCC(C(=O)N5CCNCC5)CC4)C3)[C@H](C)[C@H]12 [Example 430, (4R,5S,6R)-6-((R)-1-(2-(1H-tetrazol-1-yl)acetamido)ethyl)-4-methyl-7-oxo-3-((3S,5S)-5-(4-(piperazine-1-carbonyl)piperidine-1-carbonyl)pyrrolidin-3-ylthio)-1-azabicyclo[3.2.0]hept-2-ene-2-carboxylic acid], the MIC [1, 5] was 4 µg/mL (≈ 6.2 µM), the MIC [2, 6] was 0.5 µg/mL (≈ 0.775 µM) and the MIC [3, 7] was 2 µg/mL (≈ 3.1 µM). It also gave an MIC [4, 8] of 4 µg/mL (≈ 6.2 µM).

Compound C[C@@H](NC(=O)Cn1cnnn1)[C@H]1C(=O)N2C(C(=O)O)=C(S[C@@H]3CN[C@H](C(=O)N4C[C@@H](O)[C@@H](N)C4)C3)[C@H](C)[C@H]12 [Example 431, (4R,5S,6R)-6-((R)-1-(2-(1H-tetrazol-1-yl)acetamido)ethyl)-3-((3S,5S)-5-((3S,4R)-3-amino-4-hydroxypyrrolidine-1-carbonyl)pyrrolidin-3-ylthio)-4-methyl-7-oxo-1-azabicyclo[3.2.0]hept-2-ene-2-carboxylic acid] has an MIC [1, 5] of 2 µg/mL (≈ 3.64 µM), an MIC [2, 6] of 0.25 µg/mL (≈ 0.455 µM) and an MIC [3, 7] of 0.5 µg/mL (≈ 0.91 µM). It also gave an MIC [4, 8] of 1 µg/mL (≈ 1.82 µM).

Compound C[C@@H](NC(=O)Cn1cnnn1)[C@H]1C(=O)N2C(C(=O)O)=C(S[C@@H]3CN[C@H](C(=O)N4CCN(CCNC(=N)N)CC4)C3)[C@H](C)[C@H]12 [Example 432, (4R,5S,6R)-6-((R)-1-(2-(1H-tetrazol-1-yl)acetamido)ethyl)-3-((3S,5S)-5-(4-(2-guanidinoethyl)piperazine-1-carbonyl)pyrrolidin-3-ylthio)-4-methyl-7-oxo-1-azabicyclo[3.2.0]hept-2-ene-2-carboxylic acid] has an MIC [1, 5] of 2 µg/mL (≈ 3.23 µM), an MIC [2, 6] of 0.25 µg/mL (≈ 0.404 µM) and an MIC [3, 7] of 1 µg/mL (≈ 1.62 µM). It also gave an MIC [4, 8] of 1 µg/mL (≈ 1.62 µM).

With C[C@@H](NC(=O)Cn1cnnn1)[C@H]1C(=O)N2C(C(=O)O)=C(S[C@@H]3CN[C@H](C(=O)N4CCC(N)C(F)C4)C3)[C@H](C)[C@H]12 (stereo partly drawn) [Example 433, (4R,5S,6R)-6-((R)-1-(2-(1H-tetrazol-1-yl)acetamido)ethyl)-3-((3S,5S)-5-(4-amino-3-fluoropiperidine-1-carbonyl)pyrrolidin-3-ylthio)-4-methyl-7-oxo-1-azabicyclo[3.2.0]hept-2-ene-2-carboxylic acid] the MIC [1] was 2 µg/mL (≈ 3.54 µM), the MIC ([2]; ESBL −ve E. coli ATCC25922) was 0.25 µg/mL (≈ 0.442 µM) and the MIC [3, 9] was 1 µg/mL (≈ 1.77 µM). It also gave an MIC [4, 10] of 1 µg/mL (≈ 1.77 µM).

C[C@@H](NC(=O)Cn1cnnn1)[C@H]1C(=O)N2C(C(=O)O)=C(S[C@@H]3CN[C@H](C(=O)N4CCN(C(=O)[C@H]5C[C@@H](N)CN5)CC4)C3)[C@H](C)[C@H]12 [Example 434, (4R,5S,6R)-6-((R)-1-(2-(1H-tetrazol-1-yl)acetamido)ethyl)-3-((3S,5S)-5-(4-((2R,4R)-4-aminopyrrolidine-2-carbonyl)piperazine-1-carbonyl)pyrrolidin-3-ylthio)-4-methyl-7-oxo-1-azabicyclo[3.2.0]hept-2-ene-2-carboxylic acid] showed an MIC [1, 5] of 2 µg/mL (≈ 3.1 µM), an MIC [2, 6] of 0.5 µg/mL (≈ 0.774 µM) and an MIC [3, 7] of 2 µg/mL (≈ 3.1 µM). For the same compound, the MIC [4, 8] was 2 µg/mL (≈ 3.1 µM).

Work on C[C@@H](NC(=O)Cn1cnnn1)[C@H]1C(=O)N2C(C(=O)O)=C(S[C@@H]3CN[C@H](C(=O)N4CCC5(CCNC5)CC4)C3)[C@H](C)[C@H]12 [Example 435, (4R,5S,6R)-6-((R)-1-(2-(1H-tetrazol-1-yl)acetamido)ethyl)-3-((3S,5S)-5-(2,8-diazaspiro[4.5]decane-8-carbonyl)pyrrolidin-3-ylthio)-4-methyl-7-oxo-1-azabicyclo[3.2.0]hept-2-ene-2-carboxylic acid] yielded an MIC [1, 5] of 2 µg/mL (≈ 3.4 µM), an MIC [2, 6] of 0.25 µg/mL (≈ 0.425 µM) and an MIC [3, 7] of 1 µg/mL (≈ 1.7 µM). It also gave an MIC [4, 8] of 1 µg/mL (≈ 1.7 µM).

In the case of C[C@@H](NC(=O)Cn1cnnn1)[C@H]1C(=O)N2C(C(=O)O)=C(S[C@@H]3CN[C@H](C(=O)N(CCO)CCO)C3)[C@H](C)[C@H]12 [Example 436, (4R,5S,6R)-6-((R)-1-(2-(1H-tetrazol-1-yl)acetamido)ethyl)-3-((3S,5S)-5-(bis(2-hydroxyethyl)carbarnoyl)pyrrolidin-3-ylthio)-4-methyl-7-oxo-1-azabicyclo[3.2.0]hept-2-ene-2-carboxylic acid], the MIC [1, 5] is reported as 8 µg/mL (≈ 14.5 µM), the MIC [2, 6] is reported as 0.25 µg/mL (≈ 0.452 µM) and the MIC [3, 7] is reported as 1 µg/mL (≈ 1.81 µM). For the same compound, the MIC [4, 8] was 8 µg/mL (≈ 14.5 µM).

C[C@@H](NC(=O)Cn1cnnn1)[C@H]1C(=O)N2C(C(=O)O)=C(S[C@@H]3CN[C@H](C(=O)N4CCC(CNCC(N)=O)CC4)C3)[C@H](C)[C@H]12 [Example 437, (4R,5S,6R)-6-((R)-1-(2-(1H-tetrazol-1-yl)acetamido)ethyl)-3-((3S,5S)-5-(4-((2-amino-2-oxoethylamino)methyl)piperidine-1-carbonyl)pyrrolidin-3-ylthio)-4-methyl-7-oxo-1-azabicyclo[3.2.0]hept-2-ene-2-carboxylic acid] gave an MIC [1, 5] of 2 µg/mL (≈ 3.23 µM), an MIC [2, 6] of 0.25 µg/mL (≈ 0.404 µM) and an MIC [3, 7] of 1 µg/mL (≈ 1.62 µM). The MIC [4, 8] was 2 µg/mL (≈ 3.23 µM).

In the case of C[C@@H](NC(=O)Cn1cnnn1)[C@H]1C(=O)N2C(C(=O)O)=C(S[C@@H]3CN[C@H](C(=O)N4CCC5CNCCC54)C3)[C@H](C)[C@H]12 (stereo partly drawn) [Example 439, (4R,5S,6R)-6-((R)-1-(2-(1H-tetrazol-1-yl)acetamido)ethyl)-4-methyl-3-((3S,5S)-5-(octahydro-1H-pyrrolo[3,2-c]pyridine-1-carbonyl)pyrrolidin-3-ylthio)-7-oxo-1-azabicyclo[3.2.0]hept-2-ene-2-carboxylic acid], the MIC [1] is reported as 2 µg/mL (≈ 3.49 µM), the MIC ([2]; ESBL −ve E. coli ATCC25922) is reported as 0.25 µg/mL (≈ 0.436 µM) and the MIC [3, 9] is reported as 1 µg/mL (≈ 1.74 µM). The MIC [4, 10] was 1 µg/mL (≈ 1.74 µM).

With C[C@@H](NC(=O)Cn1cnnn1)[C@H]1C(=O)N2C(C(=O)O)=C(S[C@@H]3CN[C@H](C(=O)N4C[C@H](N)C[C@H]4CO)C3)[C@H](C)[C@H]12 [Example 440, (4R,5S,6R)-6-((R)-1-(2-(1H-tetrazol-1-yl)acetamido)ethyl)-3-((3S,5S)-5-((2S,4R)-4-amino-2-(hydroxymethyl)pyrrolidine-1-carbonyl)pyrrolidin-3-ylthio)-4-methyl-7-oxo-1-azabicyclo[3.2.0]hept-2-ene-2-carboxylic acid] the MIC [1, 5] was 2 µg/mL (≈ 3.55 µM), the MIC [2, 6] was 0.25 µg/mL (≈ 0.444 µM) and the MIC [3, 7] was 1 µg/mL (≈ 1.77 µM). It also gave an MIC [4, 8] of 1 µg/mL (≈ 1.77 µM).

C[C@@H](NC(=O)Cn1cnnn1)[C@H]1C(=O)N2C(C(=O)O)=C(S[C@@H]3CN[C@H](C(=O)N4C[C@@H](N)C[C@H]4CNS(C)(=O)=O)C3)[C@H](C)[C@H]12 [Example 441, (4R,5S,6R)-6-((R)-1-(2-(1H-tetrazol-1-yl)acetamido)ethyl)-3-((3S,5S)-5-((2S,4S)-4-amino-2-(methylsulfonamido-methyl)pyrrolidine-1-carbonyl)pyrrolidin-3-ylthio)-4-methyl-7-oxo-1-azabicyclo[3.2.0]hept-2-ene-2-carboxylic acid] was tested, and the MIC [1, 5] was 4 µg/mL (≈ 6.24 µM), the MIC [2, 6] was 0.25 µg/mL (≈ 0.39 µM) and the MIC [3, 7] was 2 µg/mL (≈ 3.12 µM). The MIC [4, 8] was 8 µg/mL (≈ 12.5 µM).

With C[C@@H](NC(=O)Cn1cnnn1)[C@H]1C(=O)N2C(C(=O)O)=C(S[C@@H]3CN[C@H](C(=O)N4CCN(C[C@@H](O)CN)CC4)C3)[C@H](C)[C@H]12 [Example 442, (4R,5S,6R)-6-((R)-1-(2-(1H-tetrazol-1-yl)acetamido)ethyl)-3-((3S,5S)-5-(4-((S)-3-amino-2-hydroxypropyl)piperazioe-1-carbonyl)pyrrolidin-3-ylthio)-4-methyl-7-oxo-1-azabicyclo[3.2.0]hept-2-ene-2-carboxylic acid] the MIC [1, 5] was 2 µg/mL (≈ 3.3 µM), the MIC [2, 6] was 0.125 µg/mL (≈ 0.206 µM) and the MIC [3, 7] was 1 µg/mL (≈ 1.65 µM). It also gave an MIC [4, 8] of 0.5 µg/mL (≈ 0.824 µM).

In the case of C[C@@H](NC(=O)Cn1cnnn1)[C@H]1C(=O)N2C(C(=O)O)=C(S[C@@H]3CN[C@H](C(=O)N4CCC(CNCCN)CC4)C3)[C@H](C)[C@H]12 [Example 443, (4R,5S,6R)-6-((R)-1-(2-(1H-tetrazol-1-yl)acetamido)ethyl)-3-((3S,5S)-5-(4-((2-aminoethylamino)methyl)piperidine-1-carbonyl)pyrrolidin-3-ylthio)-4-methyl-7-oxo-1-azabicyclo[3.2.0]hept-2-ene-2-carboxylic acid], the MIC [1, 5] is reported as 4 µg/mL (≈ 6.61 µM), the MIC [2, 6] is reported as 0.5 µg/mL (≈ 0.827 µM) and the MIC [3, 7] is reported as 2 µg/mL (≈ 3.31 µM). The MIC [4, 8] was 1 µg/mL (≈ 1.65 µM).

For C[C@@H](NC(=O)Cn1cnnn1)[C@H]1C(=O)N2C(C(=O)O)=C(S[C@@H]3CN[C@H](C(=O)N4C[C@H](N)C[C@H]4CN)C3)[C@H](C)[C@H]12 [Example 444], the MIC [1, 5] was 2 µg/mL (≈ 3.55 µM), the MIC [2, 6] was 0.5 µg/mL (≈ 0.889 µM) and the MIC [3, 7] was 2 µg/mL (≈ 3.55 µM). It also gave an MIC [4, 8] of 2 µg/mL (≈ 3.55 µM).

For C[C@@H](NC(=O)Cn1cnnn1)[C@H]1C(=O)N2C(C(=O)O)=C(S[C@@H]3CN[C@H](C(=O)N4CCN(CCCN)CC4)C3)[C@H](C)[C@H]12 [Example 445, (4R,5S,6R)-6-((R)-1-(2-(1H-tetrazol-1-yl)acetamido)ethyl)-3-((3S,5S)-5-(4-(3-aminopropyl)piperazine-1-carbooyl)pyrrolidin-3-ylthio)-4-methyl-7-oxo-1-azabicyclo[3.2.0]hept-2-ene-2-carboxylic acid], the MIC [1, 5] was 2 µg/mL (≈ 3.39 µM), the MIC [2, 6] was 0.25 µg/mL (≈ 0.423 µM) and the MIC [3, 7] was 1 µg/mL (≈ 1.69 µM). It also gave an MIC [4, 8] of 1 µg/mL (≈ 1.69 µM).
